Laboratory results published in patent publication US11826324B2, “Pharmaceutical compositions for preventing or treating inflammatory disease, autoimmune disease, or combination thereof, and method for using same” (INDUSTRY-ACADEMIC COOPERATION FOUNDATION, YONSEI UNIVERSITY, priority 2017, dated 2023).

Key:
[1] = test system: TNF-α production in THP-1 cells; assay: Inhibition of tumor necrosis factor-alpha production in THP-1 cell line (ELISA); assay type: cell-based, human; conditions: for amount of TNF-α produced in THP-1 cells, Average: PMA 25 ng/ml 24 h, then LPS, 24 h, No Drug control 5250; for production of TNF-α in cells (THP-1), result in words: FIG. 2A and Table 1
Method: The human THP-1 cell line (ATCC) was prepared and cultured at a temperature of 37° C. and under 5% CO2.
Prepared THP-1 cells were inoculated onto a 96-well plate at the density of 1×10^5, and HL-156A, HL-156B, HL-156C, HL-156D, HL-156E, and HL-156F (all produced by Hanoi BioPharma Inc.) were added at the concentration of 1 μM or 10 μM to the cell culture solution. Thereafter, 25 ng/ml of phorbol 12-myristate 13-acetate (PMA, Sigma-Aldrich) was added to the cell culture solution, and cells were cultured for 24 hours, and then, lipopolysaccharide (LPS) was added thereto to induce an immune response of THP-1 cell. As a negative control, a group in which LPS was not added or a group in which
LPS was added but no drug was added, were used.
THP-1 cells were cultured for 24 hours, and then, the amount of tumor necrosis factor-alpha (TNF-α) in the culture solution by using TNF ELISA kit (Invitrogen) was measured.

[2] = test system: TNF-α production in MH7A cells; assay: Inhibition of tumor necrosis factor-alpha production in synoviocyte MH7A (ELISA); assay type: cell-based, human; conditions: for amount of TNF-α in MH7A culture solution, Average: LPS, 24 h, control 1 (HL156A series), 3.53 (HL156B series); for production of TNF-α in the cells (MH7A), result in words: 0.1, 1, 10 μM, Table 2 and FIG. 2B
Method: Human synoviocyte cell line MH7A (provided by Prof. Kim Wan-wook of Catholic University) was prepared and cultured at a temperature of 37° C. and under 5% CO2.
The prepared MH7A cells were inoculated onto a 96-well plate at the density of 3×10^4 cells, and lipopolysaccharide (LPS) was added thereto to induce the immune response of MH7A cells. Then, HL-156A or HL-156B was added at a concentration of 0.1 μM, 1 μM, or 10 μM to the cell culture solution. As a negative control, a group in which LPS was used but no drug was used, was used.
After MH7A cells were cultured for 24 hours, the amount of TNF-α in the culture solution was measured by using a TNF-α ELISA kit (Peprotach).

[3] = test system: collagen-induced arthritis mouse model; assay: Collagen-induced arthritis mouse model, arthritis score; assay type: in vivo, DBA/1 mouse; conditions: 60 mg/kg intraperitoneally once every two days; mice with average arthritis score of 8; FIG. 5
Method: Bovine Type II collagen was dissolved in complete freund's adjuvant (CFA) containing 250 μg per mouse of heat-sterilized Mycobacterium tuberculosis H37Ra (BD Sciences) to prepare a collagen solution.
DBA/1 mouse was immunized by intradermally injecting […] per mouse of the prepared collagen thereinto. On day 21 after the immunization, bovine Type II collagen dissolved in incomplete freund's adjuvant (IFA) was injected subcutaneously into the tail of a mouse in an amount of 100 μg to boost the immune system.
The arthritis score of mice was measured using the following criteria:
Grade 0: swelling or erythema;
Grade 1: mild swelling and erythema, inflammation of the toes;
Grade 2: moderate swelling and erythema confined to the distal to mid-limbs;
Grade 3: extended to the ankle, clear swelling and erythema; and
Grade 4: Severe swelling, erythema, and joint stiffness of ankle, foot, and toes.
A score of 0 to 4 was assigned to each leg, and a maximum of 16 points of arthritis scores were assigned to each mouse.
Mice with an average arthritis score of 8 were randomly selected. The HL-156A compound was diluted in PBS and administered to the selected mice intraperitoneally once every two days with 60 mg/kg body weight of HL-156A compound.

CD4 T cell = assay: Effect on T cell activation in vitro: proliferation of CD4 T cell (CTV, flow cytometry); assay type: cell-based, C57BL/6 mice; conditions: T cells activated 3 days with anti-CD3/28 Dynabeads; HL-156A 5, 15, 45 or 135 μM and/or 20 nM rapamycin; FIG. 1A
From the text: (§1) The spleen was harvested from normal C57BL/6 mice (Orient Bio) and the mixture obtained by adding a RPMI solution containing 2% (v/v) fetal bovine serum (FBS) to the spleen tissues was homogenized by using a 40 μm strainer.
(§2) T cells were isolated from the homogenized spleen tissue by using CD90.2 magnetic beads (Miltenyi Biotec). Isolated T cells were labeled using CellTrace™ Violet (CTV). Subsequently, labeled T cells were activated for 3 days by using anti-CD3/28 Dynabeads®.
(§3) During T cells were activated, 5 μM, 15 μM, 45 μM, or 135 μM HL-156A (Hanoi BioPharma Inc.), and/or 20 nM rapamycin (LC Laboratories) were added to identify the effect of HL-156A, or the combination of HL-156A and rapamycin on the proliferation of T cells. […]
(§4) Activated T cells were immunostained by using allophycocyanin (APC)-labeled anti-CD4 antibody (BD Biosciences) and peridinin chlorophyll protein complex (PerCP)-labeled anti-CD8 antibody (eBioscience). Immunostained T cells were analyzed by flow cytometric analysis to identify the surface molecular phenotype thereof. From the results obtained by flow cytometric analysis, the proliferation ratio (%) of the T cell with respect to a material treated on the T cell was calculated, and the proliferation ratio (%) of CD4 T cell and the proliferation ratio (%) of CD8 T cell with respect to a compound are shown in FIGS. 1A and 1B, respectively.

[4] = test system: virus-specific CD8+ T cell (GP33+CD8 T cell); parameters: species or system C57BL/6 mouse; conditions: mouse, in vivo
CD8 T cell = assay: Effect on T cell activation in vitro: proliferation of CD8 T cell (CTV, flow cytometry); assay type: cell-based, C57BL/6 mice; conditions: T cells activated 3 days with anti-CD3/28 Dynabeads; HL-156A 5, 15, 45 or 135 μM and/or 20 nM rapamycin; FIG. 1B
From the text: as §1, §2, §3, §4

Row | Structure (SMILES) | amount of TNF-α produced in THP-1 cells, Average ([1]; 1 μM compound) | amount of TNF-α produced in THP-1 cells, Average ([1]; 10 μM compound) | production of TNF-α in cells (THP-1), result in words [1] | amount of TNF-α in MH7A culture solution, Average ([2]; 0.1 μM compound) | amount of TNF-α in MH7A culture solution, Average ([2]; 1 μM compound) | amount of TNF-α in MH7A culture solution, Average ([2]; 10 μM compound) | production of TNF-α in the cells (MH7A), result in words [2] | arthritis score over time [3] | proliferation of CD4 T cell (CD4 T cell) | differentiation of TCM cells and TEM cells in PBMCs [4] | proliferation of TEFF cells in PBMCs [4] | proliferation of CD8 T cell (CD8 T cell)
1 | N=C(NC(=N)N1CCCCC1)Nc1ccc(F)cc1 [HL-156C, N1-piperidine-N5-(4-fluoro)phenyl biguanide] | 4825 pg/mL | 6375 pg/mL | – | – | – | – | – | – | – | – | – | –
2 | COc1cc(NC(=N)NC(=N)N2CCCCC2)cc(OC)c1 [HL-156F, N1-piperidine-N5-(3,5-dimethoxy)phenyl biguanide] | 6425 pg/mL | 4650 pg/mL | inhibited the production of TNF-α | – | – | – | – | – | – | – | – | –
3 | N=C(NC(=N)N1CCCC1)Nc1ccc(Cl)c(Cl)c1 [HL-156E, N1-pyrrolidine-N5-(3,4-dichloro)phenyl biguanide] | 4725 pg/mL | 1925 pg/mL | inhibited the production of TNF-α | – | – | – | – | – | – | – | – | –
4 | N=C(NC(=N)N1CCCC1)Nc1ccc(C(F)(F)F)cc1 [HL-156B, N1-pyrrolidine-N5-(4-trifluoromethyl)phenyl biguanide] | 6125 pg/mL | 2875 pg/mL | inhibited the production of TNF-α | 3.11 | 2.56 | 2.17 | inhibited the production of TNF-α in a concentration-dependent manner | – | – | – | – | –
5 | N=C(NC(=N)N1CCCCC1)Nc1ccc(-c2nnn[nH]2)cc1 [HL-156D, N1-piperidine-N5-(4-(1H-tetrazole-5-yl))phenyl biguanide] | 6125 pg/mL | 5150 pg/mL | – | – | – | – | – | – | – | – | – | –
6 | N=C(NC(=N)N1CCCC1)Nc1ccc(OC(F)(F)F)cc1 [HL-156A, N1-pyrrolidine-N5-(4-trifluoromethoxy)phenyl biguanide] | 6750 pg/mL | 3025 pg/mL | inhibited the production of TNF-α | 0.82 | 0.75 | 0.72 | inhibited the production of TNF-α in a concentration-dependent manner | decreased the arthritis score over time | significantly inhibited | inhibited | promoted | significantly inhibited
